# Source: patent publication US20260274814A1, “THIENYL COMPOUNDS FOR THE TREATMENT OF A CENTRAL NERVOUS SYSTEM DISEASE OR DISORDER” (Coreterra Therapeutics, Inc., priority 2023, published 2026)
# Counter-ions that a name gives are not always drawn.
# Tested on: mice
# Assay: Neuropharmacological Assay (SmartCube): automated behavioral signature of compound-treated mice compared with a database of reference drug classes
# Assay type: in vivo
# Details: for minimal effective dose: Mus musculus, ip, read-out: MED; for minimal effective dose / MED: minimal effective dose: dose having 45% or more total activity in SmartCube, i.p., if only one dose tested, that dose is shown; for AG / AN / AP / AX / CE / HL / MS / PS / SH / AD / UK: SmartCube class probability, 3.0 mg/kg i.p., 15 min before test
# How it was run: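 Dose-response work typically spanned 0.3–10 mpk, widened or narrowed to obtain a full curve, with i.p. administration 15 min pre-test. MED is defined as the dose producing ≥45% total SmartCube activity; single-dose entries list the tested dose.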
Compound,minimal effective dose [mg/kg],AG,AN,AP,AX,CE,HL,MS,PS,SH,"AD (hydrochloride, 3 mg/kg)","UK (hydrochloride, 3 mg/kg)",MED [mpk],AD,"UK (dihydrochloride, 3 mg/kg)"
"CNC1CCc2c(C(F)(F)F)csc2C1 (single isomer, unassigned) [Compound 230, N-methyl-3-(trifluoromethyl)-4,5,6,7-tetrahydrobenzothiophen-6-amine hydrochloride]",3,ND (^ <4%),ND (^ <4%),ND (^ <4%),ND (^ <4%),ND (^ <4%),ND (^ <4%),ND (^ <4%),ND (^ <4%),ND (^ <4%),+ (≥4%),ND (^ <4%),,,
"CNC1CCc2c(C(F)(F)F)csc2C1 (single isomer, unassigned) [Compound 231, N-methyl-3-(trifluoromethyl)-4,5,6,7-tetrahydrobenzothiophen-6-amine hydrochloride]",,ND (^ <4%),ND (^ <4%),ND (^ <4%),ND (^ <4%),ND (^ <4%),ND (^ <4%),ND (^ <4%),ND (^ <4%),ND (^ <4%),ND (^ <4%),+++ (≥49%),3,,
"CNC1CCc2scc(-c3ccccc3)c2C1 (single isomer, unassigned) [Compound 232, N-methyl-3-phenyl-4,5,6,7-tetrahydrobenzothiophen-5-amine hydrochloride]",> 3,ND (^ <4%),ND (^ <4%),ND (^ <4%),ND (^ <4%),ND (^ <4%),ND (^ <4%),ND (^ <4%),ND (^ <4%),ND (^ <4%),,+ (≥4%),,ND (^ <4%),
"CNC1CCc2scc(-c3ccccc3)c2C1 (single isomer, unassigned) [Compound 233, N-methyl-3-phenyl-4,5,6,7-tetrahydrobenzothiophen-5-amine hydrochloride]",,ND (^ <4%),ND (^ <4%),ND (^ <4%),ND (^ <4%),ND (^ <4%),ND (^ <4%),ND (^ <4%),ND (^ <4%),ND (^ <4%),,ND (^ <4%),>3,ND (^ <4%),
"CNC1CCc2scc(CN)c2C1 (single isomer, unassigned) [Compound 236, 3-(aminomethyl)-N-methyl-4,5,6,7-tetrahydrobenzothiophen-5-amine dihydrochloride]",> 3,ND (^ <4%),ND (^ <4%),ND (^ <4%),ND (^ <4%),ND (^ <4%),ND (^ <4%),ND (^ <4%),ND (^ <4%),ND (^ <4%),,,,ND (^ <4%),ND (^ <4%)
"CNC1CCc2scc(CN)c2C1 (single isomer, unassigned) [Compound 237, 3-(aminomethyl)-N-methyl-4,5,6,7-tetrahydrobenzothiophen-5-amine dihydrochloride]",,ND (^ <4%),ND (^ <4%),ND (^ <4%),ND (^ <4%),ND (^ <4%),ND (^ <4%),ND (^ <4%),ND (^ <4%),ND (^ <4%),,,>3,ND (^ <4%),+ (≥4%)
